Biological target: T1, RET (Homo sapiens, UniProt P07949)
T1 construct: purchased Thermo Fisher Scientific (Life Technologies) SelectScreen
Experiment: SelectScreen Z'LYTE
Format: biochemical
How it was run: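 Percent values come from Thermo SelectScreen profiling of NU5455, combining activity and binding assays. CSF1R was run in Z'LYTE format at Km app ATP, and CAMK1 in Adapta format with ATP listed at 10.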

T1 sequence (P07949 29-1114): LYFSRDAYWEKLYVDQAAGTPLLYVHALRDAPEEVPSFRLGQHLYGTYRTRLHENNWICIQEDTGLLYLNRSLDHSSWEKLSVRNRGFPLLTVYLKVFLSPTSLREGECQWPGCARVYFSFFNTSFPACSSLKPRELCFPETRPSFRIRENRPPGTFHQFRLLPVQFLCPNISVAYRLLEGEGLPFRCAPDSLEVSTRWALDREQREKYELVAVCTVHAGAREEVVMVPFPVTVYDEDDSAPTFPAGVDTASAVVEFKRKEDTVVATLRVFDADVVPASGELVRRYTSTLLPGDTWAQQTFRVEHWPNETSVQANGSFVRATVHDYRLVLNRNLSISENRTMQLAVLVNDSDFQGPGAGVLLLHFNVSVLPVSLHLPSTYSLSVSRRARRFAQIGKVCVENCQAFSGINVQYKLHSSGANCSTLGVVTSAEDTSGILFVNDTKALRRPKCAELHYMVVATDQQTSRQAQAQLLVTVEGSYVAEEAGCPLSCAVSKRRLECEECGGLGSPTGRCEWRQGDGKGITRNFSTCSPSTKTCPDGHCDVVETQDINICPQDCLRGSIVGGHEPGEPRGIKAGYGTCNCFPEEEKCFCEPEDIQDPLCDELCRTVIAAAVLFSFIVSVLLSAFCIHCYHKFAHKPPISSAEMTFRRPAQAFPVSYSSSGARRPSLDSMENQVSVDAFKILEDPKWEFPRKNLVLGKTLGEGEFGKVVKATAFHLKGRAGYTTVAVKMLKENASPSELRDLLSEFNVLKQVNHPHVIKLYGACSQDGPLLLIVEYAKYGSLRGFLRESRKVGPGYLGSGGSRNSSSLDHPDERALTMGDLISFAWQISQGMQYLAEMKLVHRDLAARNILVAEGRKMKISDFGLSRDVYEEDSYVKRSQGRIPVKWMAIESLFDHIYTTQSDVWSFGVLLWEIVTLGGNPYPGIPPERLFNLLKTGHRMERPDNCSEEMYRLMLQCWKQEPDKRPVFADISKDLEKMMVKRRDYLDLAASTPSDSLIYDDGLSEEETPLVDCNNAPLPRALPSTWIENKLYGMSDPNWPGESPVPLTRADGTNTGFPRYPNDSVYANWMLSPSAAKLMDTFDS

Q: With `CN(C(=O)CN1CCOCC1)c1ccc2sc3c(-c4cccc5c(=O)cc(N6CC7CCC(C6)O7)oc45)cccc3c2c1` [NU5455] as the molecule, how does the inhibition at 1 µM read?
A: Its inhibition at 1 µM is 5.2%.

Reference: article PMC6934184, “Selective DNA-PKcs inhibition extends the therapeutic index of localized radiotherapy and chemotherapy” (The Journal of Clinical Investigation, 2019)
